Source: ChEMBL document CHEMBL5661955, “ASAP - In vitro cytotoxicity” (2024)
Values joined by “and” are separate entries in the source; they are usually repeats but may differ in a detail not shown here. Identical values can stand only once.

Legend:
[1] = Functional CPE-based assay to measure dose dependent changes in cell viability from drug treatment in Vero E6 miRFP670 cells (cotreated with P-gp inhibitor, CP100356). Cells are treated with antiviral candidates that have been serially diluted. Cytotoxicity is reported via analysis of MTS assays in uninfected cells. The assay has been performed by KU Leuven.; format: toxicity, Vero C1008; details: chlorocebus sabaeus, p-gp concentration 500 nM
[2] = Functional assay to measure dose dependent changes in cell viability from drug treatment in Vero E6 miRFP670 cells (cotreated with P-gp inhibitor, CP100356) that are infected with Dengue virus type 2 New Guinea C. […] Cytotoxicity is reported via via analysis of DAPI count using high-content imager. The assay has been performed by KU Leuven.; format: toxicity, cell-based, Vero C1008; details: chlorocebus sabaeus, with CP100356 (P-gp inhibitor, concentration not stated); p-gp concentration 500 nM
[3] = Vero E6 miRFP670 cells, with CP100356 (P-gp inhibitor, concentration not stated)

Row | Compound | CC50 [1, 3] [µM] | CC50 [2] [µM] | CC50 ([1]; vero c1008)
1 | Cc1ncc(-c2cc(F)cc(C(=O)Nc3ccc4c(c3)CNC4)c2)o1 | 11.9 | 12.5 | 
2 | O=C(Nc1cc2c(cc1Br)CNC2)c1cc(Cl)cc2[nH]ncc12 | 1.85 | 13.5 | 
3 | O=C(Nc1ccc2c(c1)CNC2)c1cc(F)cc(-c2cn[nH]c2)c1 | > 50 | 37.2 | 
4 | O=C(Nc1ccc2c(c1)CNC2)c1cccc2[nH]c(C(F)(F)F)cc12 | 47.3 | > 50 | 
5 | N#Cc1cccc(-c2nc3c(C(=O)Nc4ccc5c(c4)CNC5)cc(F)cc3[nH]2)c1 | 29.2 | 20.7 | 
6 | O=C(Nc1ccc2c(c1)CNC2)c1cc(Cl)cc2[nH]c(-c3ccnn3C3CC3)nc12 | 1.78 | 11.7 | 
7 | O=C(Nc1cc2c(c(-c3c[nH]c(=O)c(F)c3)c1)CNC2)c1cc(F)cc2[nH]ncc12 | > 50 | > 50 | 
8 | CNC(=O)[C@H](Nc1ccc2c(c1)CNC2)c1cc(Cl)cc2[nH]c(-c3ccccc3)nc12 |  | > 50 | 9.01 µM and 21.4 µM
9 | O=C(Nc1ccc2c(c1)CN[C@H]2C[C@H](O)CO)c1cc(F)cc2[nH]ncc12 | > 50 | 31.2 | 
10 | O=C(NCCCn1ccnc1)[C@H](Nc1ccc2c(c1)CNC2)c1cc(Cl)cc(C2CC2)c1 | 11.5 | > 50 | 
11 | O=C(Nc1ccc2c(c1)CNC2)c1cc(Cl)cc2[nH]c(-c3ccc(F)cc3O)nc12 | 2.19 | 1.64 | 
12 | N#Cc1ccc(-c2nc3c(C(=O)Nc4ccc5c(c4)CNC5)cc(F)cc3[nH]2)cc1 | > 50 | > 50 | 
13 | COc1cccc(-c2nc3c(C(=O)Nc4ccc5c(c4)CNC5)cc(F)cc3[nH]2)c1 | 2.86 | 5.1 | 
14 | CO[C@H]1C[C@H](n2ncc3c(C(=O)Nc4ccc5c(c4)CNC5)cc(Cl)cc32)C1 | 14 | 47.5 | 
15 | O=C(NCC(F)F)[C@H](Nc1ccc2c(c1)CNC2)c1cc(F)cc2[nH]ccc12 | > 50 | 31.1 | 
16 | Cn1cc2c(C(=O)Nc3ccc4c(c3)CNC4)cc(F)cc2n1 | > 50 | > 50 | 
17 | COc1ccccc1-c1nc2c(C(=O)Nc3ccc4c(c3)CNC4)cc(F)cc2[nH]1 | > 50 | 15.6 | 
18 | CCCn1cc2c(C(=O)Nc3ccc4c(c3)CNC4)cc(Cl)cc2n1 | 17.4 | 21.5 | 
19 | O=C(NCCC1CC1)[C@H](Nc1ccc2c(c1)CNC2)c1cc(Cl)cc(C2CC2)c1 | 11.8 | 16.7 | 
20 | NCc1cccc(-c2csc3cc(C(=O)Nc4ccc5c(c4)CNC5)ccc23)c1 | 5.68 | 3.57 | 
21 | O=C(Nc1ccc2c(c1)CNC2)c1cc(F)cc2[nH]c(-c3cccc(F)c3)nc12 | 3.69 | 2.47 | 
22 | N#Cc1cc2c(cc1NC(=O)c1cc(F)cc3[nH]ncc13)CNC2 | > 50 | > 50 | 

Row | Compound | CC50 [1, 3] [µM] | CC50 [2] [µM] | CC50 ([1]; vero c1008)
23 | O=C(Nc1ccc2c(c1)CNC2)c1cc(F)cc(-c2cccnc2)c1 | 15.4 | > 50 | 
24 | O=C(Nc1ccc2c(c1)CNC2)c1cc(Cl)cc2cc[nH]c12 | 5.91 | 19.7 | 
25 | Cc1cccc(-c2nc3c(C(=O)Nc4ccc5c(c4)CNC5)cc(F)cc3[nH]2)c1 | 2.76 | 0.838 | 
26 | O=C(Nc1ccc2c(c1)CNC2)c1cccc2c1[C@]1(CCNC1)C(=O)N2 | > 50 | > 50 | 
27 | Cc1ncc(-c2cc(F)cc(C(=O)Nc3ccc4c(c3)CNC4)c2)s1 | 23.1 | > 50 | 
28 | O=C(Nc1cc(Br)c2c(c1)CNC2)c1cc(F)cc2[nH]ncc12 | > 50 | > 50 | 
29 | O=C(NCC(F)F)[C@H](Nc1ccc2c(c1)CNC2)c1cc(F)cc2[nH]ncc12 | > 50 | > 50 | 
30 | O=C(Nc1ccc2c(c1)CNC2)c1cc(F)cc(-c2c[nH]c(=O)c(F)c2)c1 | > 50 | 25.4 | 
31 | N#CCc1cc(NC(=O)c2cc(F)cc3[nH]ncc23)cc2c1CNC2 | > 50 | > 50 | 
32 | C=Cc1cc2c(cc1NC(=O)c1cc(F)cc3[nH]ncc13)CNC2 | > 50 | > 50 | 
33 | O=C(Nc1ccc2c(c1)CNC2)c1ccc2c(C3=CCNCC3)csc2c1 | 47.1 | 18.8 | 
34 | O=C(NCC(F)F)[C@H](Nc1cnc2c(c1)CNC2)c1cc(Cl)cc(C2CC2)c1 | > 50 | > 50 | 
35 | O=C(Nc1cc2c(cc1C1CC1)CNC2)c1cc(F)cc2[nH]ncc12 | > 50 | 10.1 | 
36 | Cc1ccc(-c2nc3c(C(=O)Nc4ccc5c(c4)CNC5)cc(F)cc3[nH]2)cc1 | 1.42 | 3 | 
37 | CC1=C(c2cc(NC(=O)c3cc(Cl)cc4[nH]ncc34)cc3c2CNC3)CCC1=O | > 50 | > 50 | 
38 | O=C(Nc1ccc2c(c1)CNC2)c1cc(Cl)cc2c1cnn2C[C@H]1CCCO1 | 26.9 | 37.1 | 
39 | Cn1c(=O)[nH]c2c(C(=O)Nc3ccc4c(c3)CNC4)cc(Br)cc21 | 34.2 | > 50 | 
40 | O=C(Nc1cc2c(c(C3=CC[C@H](O)CC3)c1)CNC2)c1cc(Cl)cc2[nH]ncc12 | > 50 | > 50 | 
41 | O=C(Nc1ccc2c(c1)CNC2)c1cc(Cl)cc2[nH]c(-c3cc(C4CC4)[nH]n3)nc12 | 1.51 | 1.27 | 
42 | O=C(Nc1ccc2c(c1)CNC2)c1cc(F)cc2c1CCC2 | 33 | > 50 | 
43 | O=C(Nc1ccc2c(c1)CNC2)c1cccc2[nH]c(=O)[nH]c12 | > 50 | 33.3 | 
44 | O=C(Nc1ccc2c(c1)CN[C@H]2CCO)c1cc(F)cc2[nH]ncc12 | > 50 | 42.5 | 

Row | Compound | CC50 [1, 3] [µM] | CC50 [2] [µM] | CC50 ([1]; vero c1008)
45 | C=CC[C@H]1NCc2cc(NC(=O)c3cc(F)cc4c3CC(=O)N4)ccc21 | > 50 | > 50 | 
46 | Cc1cnccc1-c1cc(NC(=O)c2cc(F)cc3[nH]ncc23)cc2c1CNC2 | > 50 | > 50 | 
47 | O=C(Nc1ccc2c(c1)CNC2)c1cc(F)cc2[nH]c(-c3ccc(F)cc3)nc12 | 6.47 | 4.33 | 
48 | O=C(Nc1ccc2c(c1)CNC2)c1cccc2nc(O)ccc12 | 36.5 | > 50 | 
49 | Cc1cc(-c2cc(F)cc(C(=O)Nc3ccc4c(c3)CNC4)c2)[nH]n1 | > 50 | > 50 | 
50 | O=C(Nc1ccc2c(c1)CNC2)c1cc(Br)cc2c1nc1n2CCCC1 | 0.847 | 1.27 | 
51 | COc1cc(-c2cc(NC(=O)c3cc(F)cc4[nH]ncc34)cc3c2CNC3)ccn1 | > 50 | > 50 | 
52 | CC(C)n1cc2c(C(=O)Nc3ccc4c(c3)CNC4)cc(Cl)cc2n1 | 11.8 | 22.7 | 
53 | O=C1Cc2cc(C(=O)Nc3ccc4c(c3)CNC4)ccc2N1 |  | > 50 | 8.74 µM and > 50 µM
54 | O=C(NCc1cccnc1)[C@H](Nc1ccc2c(c1)CNC2)c1cc(Cl)cc2[nH]ncc12 | 8.32 | > 50 | 
55 | N#Cc1cccc(-c2nc3c(C(=O)Nc4ccc5c(c4)CNC5)cc(Cl)cc3[nH]2)c1 | 6.67 | > 50 | 
56 | O=C(Nc1ccc2c(c1)CNC2)c1cccc2cn[nH]c12 | 47.8 | > 50 | 
57 | O=C(Nc1cc2c(cc1Br)CNC2)c1cc(F)cc2[nH]ncc12 | 46.1 | > 50 | 
58 | O=C(Nc1ccc2c(c1)CNC2)c1cc(F)cc(-c2cnc(C3CC3)s2)c1 | 19.7 | 16.4 | 
59 | O=C(Nc1ccc2c(c1)CNC2)c1cc(Cl)cc2ccccc12 | 10.1 | 25.1 | 
60 | O=C(Nc1cc2c(c(C3=CCS(=O)(=O)CC3)c1)CNC2)c1cc(F)cc2[nH]ncc12 | > 50 | > 50 | 
61 | O=C(Nc1cc2c(c(-c3ccnnc3)c1)CNC2)c1cc(Cl)cc2[nH]ncc12 | > 50 | 25.8 | 
62 | O=C(Nc1ccc2c(c1)CNC2)c1cc(Cl)cc2c1cnn2C1CCC1 | 9.91 | 12.8 | 
63 | O=C(Nc1ccc2c(c1)CNC2)c1cc(Cl)cc2c1NCCC2 | 6.83 | 24.8 | 
64 | O=C(Nc1ccc2c(c1)CNC2)c1cc(Cl)cc(N2CCCC2)c1 | 5.83 | 13.2 | 
65 | O=C(Nc1cc2c(c(C3=CCOCC3)c1)CNC2)c1cc(F)cc2[nH]ncc12 | > 50 | > 50 | 
